Values of other authors, collected in patent publication US20060153908A1, “Spherical pellet formulations” (priority 2002, published 2006).
Structures can show the parent of a compound that is named as a salt.

Settings: in water

COc1cccc(C2(O)CCCCC2CN(C)C)c1 (single isomer, unassigned) [Tramadol hydrochloride, (1R,2R or 1S,2S)-2-[(dimethylamino)methyl]-1-(3-methoxyphenyl)-cyclohexanol]
water solubility: very water-soluble
